Experimental data published in patent US20180162862A1 (President and Fellows of Harvard College, priority 2015, published 2018).
Converted amounts (≈) assume the structure as drawn.

Experiments:
S. aureus ATCC 29213 = assay: MIC test according to CLSI M7-A9, S. aureus ATCC 29213; type: cell-based; conditions: Staphylococcus aureus, ATCC29213; CLSI M7-A9, CAMHB, 24 h (Table 3); read-out: S. aureus ATCC 29213 MIC
Method: (§1) MIC Test (S. aureus ATCC 29213, S. aureus ATCC 43300 and S. aureus Newman)
(§2) Susceptibility testing of S. aureus ATCC 29213, ATCC 43300 and Newman was performed according to Clinical Laboratory Standard Institute (CLSI) guidelines M7-A9. Test articles were stored at room temperature prior to use, then dissolved in filtered sterile DMSO. Stock DMSO solutions were diluted further in cation-adjusted Mueller Hinton broth (CAMHB) to provide appropriate test concentrations. Cultures of S. aureus (ATCC 29213, ATCC 43300 or Newman) were added in accordance with CLSI guidelines and plates incubated at 37° C. in air for 24 h. Endpoints were determined visually (and by spectrophotometer at 600 nm) and the minimum inhibitory concentration (MIC) defined as the lowest concentration of test articles resulting in complete inhibition of visible bacterial growth. Results are detailed in Table 2 (S. aureus ATCC 29213 and ATCC 43300) and Table 3 (S. aureus ATCC 29213, ATCC 43300 and Newman).

S. aureus Newman = assay: MIC test according to CLSI M7-A9, S. aureus Newman; type: cell-based; conditions: Staphylococcus aureus, CLSI M7-A9, CAMHB, 24 h (Table 3), read-out: S. aureus ATCC Newman MIC
Method: as §1, §2

Row | Compound | MIC (S. aureus ATCC 29213) | MIC (S. aureus Newman)
1 | CC(C)(C)c1ccc(-c2nc(NCc3ccc(C#N)cc3)n3[nH]c(=O)cc3n2)cc1 [Example 84, 4-({[2-(4-tert-butylphenyl)-7-oxo-6H,7H-pyrazolo[1,5-a][1,3,5]triazin-4-yl]amino}methyl)benzonitrile] | 16 µg/mL (≈ 40.2 µM) | 8 µg/mL (≈ 20.1 µM)
2 | CCCCNc1nc(-c2ccc(C(C)(C)C)cc2)nc2c(Cc3c[nH]cn3)c(=O)[nH]n12 [Example 110, 4-(butylamino)-2-(4-tert-butylphenyl)-8-(1H-imidazol-4-ylmethyl)-6H,7H-pyrazolo[1,5-a][1,3,5]triazin-7-one] | 4 µg/mL (≈ 9.53 µM) | 2 µg/mL (≈ 4.77 µM)
3 | CN(CCCNc1nc(-c2ccc(C(C)(C)C)cc2)nc2cc(=O)[nH]n12)Cc1ccccc1 [Example 98, 4-({3-[benzyl(methyl)amino]propyl}amino)-2-(4-tert-butylphenyl)-6H,7H-pyrazolo[1,5-a][1,3,5]triazin-7-one] | 32 µg/mL (≈ 72 µM) | 32 µg/mL (≈ 72 µM)
4 | CC(C)(C)c1ccc(-c2nc(NCCCNC3Cc4ccccc4C3)n3[nH]c(=O)c(Cc4ccccc4)c3n2)cc1 [Example 108, 8-benzyl-2-(4-tert-butylphenyl)-4-({3-[(2,3-dihydro-1H-inden-2-yl)amino]propyl}amino)-6H,7H-pyrazolo[1,5-a][1,3,5]triazin-7-one] | 0.5 µg/mL (≈ 0.915 µM) | 2 µg/mL (≈ 3.66 µM)
5 | CC(C)(C)c1nc(NCCCN2CCc3ccccc3C2)n2[nH]c(=O)cc2n1 [Example 97, 2-tert-butyl-4-{[3-(1,2,3,4-tetrahydroisoquinolin-2-yl)propyl]amino}-6H,7H-pyrazolo[1,5-a][1,3,5]triazin-7-one] | 128 µg/mL (≈ 336 µM) | 64 µg/mL (≈ 168 µM)
6 | Cc1cc(OCCCN(CCCN(C)C)c2nc(-c3ccc(C(C)(C)C)cc3)nc3cc(=O)[nH]n23)ccc1Cl [Example 86, 2-(4-tert-butylphenyl)-4-{[3-(4-chloro-3-methylphenoxy)propyl][3-(dimethylamino)propyl]amino}-6H,7H-pyrazolo[1,5-a][1,3,5]triazin-7-one] | 2 µg/mL (≈ 3.63 µM) | 1 µg/mL (≈ 1.81 µM)
7 | CC(C)(C)c1ccc(-c2nc(NCC3CN(Cc4ccccc4)CCO3)n3[nH]c(=O)cc3n2)cc1 (stereo not shown) [Example 79, 4-{[(4-benzylmorpholin-2-yl)methyl]amino}-2-(4-tert-butylphenyl)-6H,7H-pyrazolo[1,5-a][1,3,5]triazin-7-one] | 32 µg/mL (≈ 67.7 µM) | 16 µg/mL (≈ 33.9 µM)

More lines, now with the values ahead:

Row | MIC (S. aureus ATCC 29213) | MIC (S. aureus Newman) | Compound
8 | 8 µg/mL (≈ 18.5 µM) | 8 µg/mL (≈ 18.5 µM) | O=c1[nH]n2c(NCCCO)nc(C34CC5CC(CC(C5)C3)C4)nc2c1Cc1ccccc1 [Example 122, 2-(adamantan-1-yl)-8-benzyl-4-[(3-hydroxypropyl)amino]-6H,7H-pyrazolo[1,5-a][1,3,5]triazin-7-one]
9 | 64 µg/mL (≈ 135 µM) | 64 µg/mL (≈ 135 µM) | Cc1ccc(Cc2c(=O)[nH]n3c(NCCCN(C)C)nc(-c4ccc(C(C)(C)C)cc4)nc23)cn1 [Example 114, 2-(4-tert-butylphenyl)-4-{[3-(dimethylamino)propyl]amino}-8-[(6-methylpyridin-3-yl)methyl]-6H,7H-pyrazolo[1,5-a][1,3,5]triazin-7-one]
10 | 32 µg/mL (≈ 57 µM) | 8 µg/mL (≈ 14.2 µM) | Cc1ccc(Cc2c(=O)[nH]n3c(NCCCN4CCc5ccccc5C4)nc(-c4ccc(C(C)(C)C)cc4)nc23)cn1 [Example 115, 2-(4-tert-butylphenyl)-8-[(6-methylpyridin-3-yl)methyl]-4-[3-(1,2,3,4-tetrahydroisoquinolin-2-yl)propyl]amino-6H,7H-pyrazolo[1,5-a][1,3,5]triazin-7-one]
11 | 2 µg/mL (≈ 3.64 µM) | 1 µg/mL (≈ 1.82 µM) | O=c1[nH]n2c(NCCCNC3Cc4ccccc4C3)nc(C34CC5CC(CC(C5)C3)C4)nc2c1Cc1ccccc1 [Example 125, 2-(adamantan-1-yl)-8-benzyl-4-({3-[(2,3-dihydro-1H-inden-2-yl)amino]propyl}amino)-6H,7H-pyrazolo[1,5-a][1,3,5]triazin-7-one]
